Reference: patent publication US5413990A, “N-terminus modified analogs of LHRH” (Tap Pharmaceuticals Inc., priority 1993, dated 1995)
Numbered stars: 1 amine (or outer) side, 2 acyl side, 3 side chain; on linkers, the order of the positions; unused ones are H or OH. Square brackets hold non-standard residues; d marks the D form. Peptide text beside a SMILES is read from it. * marks the point of attachment. dPhe(4-Cl) = N[C@H](Cc1ccc(Cl)cc1)C(=O)O; NH(2-morpholinoethyl) = C(CN1CCOCC1)N*; d2Nal = N[C@H](Cc1ccc2ccccc2c1)C(=O)O; Cyclopentanecarbonyl = O=C(C1CCCC1)*; Lys(iPr) = CC(C)NCCCC[C@H](N)C(=O)O; NMeY = CN[C@@H](Cc1ccc(O)cc1)C(=O)O; Cyclohexylacetyl = O=C(CC1CCCCC1)*; Cyclopropanecarbonyl = O=C(C1CC1)*; Piperazinyl(4-Me) = CN1CCN(*)CC1; dCit = NC(=O)NCCC[C@@H](N)C(=O)O; d3Pal = N[C@H](Cc1cccnc1)C(=O)O; Suc = O=C(CCC(=O)[*:2])[*:1]; Nicotinoyl = O=C(c1cccnc1)*; X2 = O=C(CCc1ccc2ccccc2c1)*; PhAc = O=C(Cc1ccccc1)*; CO = O=C([*:1])[*:2]; Propionyl = CCC(=O)*; Butyryl = CCCC(=O)*; Glycolyl = O=C(CO)*

Target: T1, LHRH (Rattus norvegicus, UniProt P30969)
T1 construct: evaluated in an in vitro test for LHRH antagonist potency (pA2); endogenous in cells; host or cells: pituitary cells (rat, from my own knowledge of the cited method)
T1 sequence (P30969 1-327): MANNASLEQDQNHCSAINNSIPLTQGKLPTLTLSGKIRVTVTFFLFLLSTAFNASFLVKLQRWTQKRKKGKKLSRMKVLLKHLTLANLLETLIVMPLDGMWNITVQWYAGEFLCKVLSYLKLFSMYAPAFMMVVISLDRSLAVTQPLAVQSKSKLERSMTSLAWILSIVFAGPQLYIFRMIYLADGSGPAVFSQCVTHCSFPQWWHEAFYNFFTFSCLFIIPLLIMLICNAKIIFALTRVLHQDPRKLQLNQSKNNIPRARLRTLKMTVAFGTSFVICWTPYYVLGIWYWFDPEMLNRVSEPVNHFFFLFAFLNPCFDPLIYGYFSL
Assay: in vitro test for LHRH antagonist potency (pA2)
Assay type: cell-based
Conditions: negative logarithm of the antagonist concentration required to shift the response curve produced by the agonist leuprolide to two-fold higher concentration
Method: Representative compounds of the present invention were evaluated in an in vitro test for LHRH antagonist potency (pA2). The test employed the method detailed in F. Haviv, et al. J. Med. Chem., 32:2340-2344 (1989). The values of pA2 are the negative logarithms of the concentration of the particular antagonist test compound required to shift the response curve produced by the agonist leuprolide to two-fold higher concentration. (Leuprolide is the LHRH agonist having the structure 5-oxo-Pro^1 -His^2 -Trp^3 -Ser^4 -Tyr^5 -D-Leu^6 -Leu^7 -Arg^8 -Pro^9 -NHEt and is disclosed and claimed in U.S. Pat. No. 4,005,063.) Typically pA2 values of 9.5 or greater are indicative of good LHRH antagonist potency, with values of 10.0 or greater being preferred.

Compound | Kb [pM]
CC(C)C[C@H](NC(=O)[C@@H](CCCCNC(=O)c1cccnc1)NC(=O)[C@H](Cc1ccc(O)cc1)N(C)C(=O)[C@H](CO)NC(=O)[C@@H](Cc1cccnc1)NC(=O)[C@@H](Cc1ccc(Cl)cc1)NC(=O)[C@@H](Cc1ccc2ccccc2c1)NC(=O)CCc1ccc2ccccc2c1)C(=O)N[C@@H](CCCCNC(C)C)C(=O)N1CCC[C@H]1C(=O)N[C@H](C)C(N)=O [Example 2o, N-3(2-Naphthyl)propionyl-D2Nal-D4ClPhe-D3Pal-Ser-NMeTyr-DLys(N-epsilon-Nicotinyl)-Leu-Lys(N-epsilon-Isopropyl) -Pro-DAlaNH2] (X2-[d2Nal][dPhe(4-Cl)][d3Pal]S[NMeY][dK](Nicotinoyl)L[Lys(iPr)]P[dA]-NH2) | 79.4
CC(C)C[C@H](NC(=O)[C@@H](CCCNC(N)=O)NC(=O)[C@H](Cc1ccc(O)cc1)N(C)C(=O)[C@H](CO)NC(=O)[C@@H](Cc1cccnc1)NC(=O)[C@@H](Cc1ccc(Cl)cc1)NC(=O)[C@@H](Cc1ccc2ccccc2c1)NC(=O)NCCN1CCOCC1)C(=O)N[C@@H](CCCNC(=N)N)C(=O)N1CCC[C@H]1C(=O)N[C@H](C)C(N)=O [Example 8c, N-(Morpholinoethylaminocarbonyl)-D2Nal-D4ClPhe-D3Pal-Ser-NMeTyr-DCit-Leu-Arg-Pro-DAlaNH2] ({NH(2-morpholinoethyl)-CO}-[d2Nal][dPhe(4-Cl)][d3Pal]S[NMeY][dCit]LRP[dA]-NH2) | 49
CC(C)C[C@H](NC(=O)[C@@H](CCCNC(N)=O)NC(=O)[C@H](Cc1ccc(O)cc1)N(C)C(=O)[C@H](CO)NC(=O)[C@@H](Cc1cccnc1)NC(=O)[C@@H](Cc1ccc(Cl)cc1)NC(=O)[C@@H](Cc1ccc2ccccc2c1)NC(=O)CO)C(=O)N[C@@H](CCCNC(=N)N)C(=O)N1CCC[C@H]1C(=O)N[C@H](C)C(N)=O [Example 4, N-Glycolyl-D2Nal-D4ClPhe-D3Pal-Ser-NMeTyr-DCit-Leu-Arg-Pro-DAlaNH2] (Glycolyl-[d2Nal][dPhe(4-Cl)][d3Pal]S[NMeY][dCit]LRP[dA]-NH2) | 6.61
CC(C)C[C@H](NC(=O)[C@@H](CCCNC(N)=O)NC(=O)[C@H](Cc1ccc(O)cc1)N(C)C(=O)[C@H](CO)NC(=O)[C@@H](Cc1cccnc1)NC(=O)[C@@H](Cc1ccc(Cl)cc1)NC(=O)[C@@H](Cc1ccc2ccccc2c1)NC(=O)N1CCN(C)CC1)C(=O)N[C@@H](CCCNC(=N)N)C(=O)N1CCC[C@H]1C(=O)N[C@H](C)C(N)=O [Example 8d, N-(N'-Methylpiperazinylcarbonyl)-D2Nal-D4ClPhe-D3Pal-Ser-NMeTyr-DCit-Leu-Arg-Pro-DAlaNH2] ({Piperazinyl(4-Me)-CO}-[d2Nal][dPhe(4-Cl)][d3Pal]S[NMeY][dCit]LRP[dA]-NH2) | 39.8
CC(C)C[C@H](NC(=O)[C@@H](CCCNC(N)=O)NC(=O)[C@H](Cc1ccc(O)cc1)N(C)C(=O)[C@H](CO)NC(=O)[C@@H](Cc1cccnc1)NC(=O)[C@@H](Cc1ccc(Cl)cc1)NC(=O)[C@@H](Cc1ccc2ccccc2c1)NC(=O)Cc1ccccc1)C(=O)N[C@@H](CCCNC(=N)N)C(=O)N1CCC[C@H]1C(=O)N[C@H](C)C(N)=O [Example 5f, NPhenylacetyl-D2Nal-D4ClPhe-D3Pal-Ser-NMeTyr-DCit-Leu-Arg-Pro-DAlaNH2] (PhAc-[d2Nal][dPhe(4-Cl)][d3Pal]S[NMeY][dCit]LRP[dA]-NH2) | 15.8
CC(C)C[C@H](NC(=O)[C@@H](CCCCNC(=O)c1cccnc1)NC(=O)[C@H](Cc1ccc(O)cc1)N(C)C(=O)[C@H](CO)NC(=O)[C@@H](Cc1cccnc1)NC(=O)[C@@H](Cc1ccc(Cl)cc1)NC(=O)[C@@H](Cc1ccc2ccccc2c1)NC(=O)CC1CCCCC1)C(=O)N[C@@H](CCCCNC(C)C)C(=O)N1CCC[C@H]1C(=O)N[C@H](C)C(N)=O [Example 2i, N-Cyclohexylacetyl-D2Nal-D4ClPhe-D3Pal-Ser-NMeTyr-DLys(N-epsilon-Nicotinyl)-Leu-Lys(N-epsilon-Isopropyl)-Pro-DAlaNH 2] (Cyclohexylacetyl-[d2Nal][dPhe(4-Cl)][d3Pal]S[NMeY][dK](Nicotinoyl)L[Lys(iPr)]P[dA]-NH2) | 1580
CC(C)C[C@H](NC(=O)[C@@H](CCCCNC(=O)c1cccnc1)NC(=O)[C@H](Cc1ccc(O)cc1)N(C)C(=O)[C@H](CO)NC(=O)[C@@H](Cc1cccnc1)NC(=O)[C@@H](Cc1ccc(Cl)cc1)NC(=O)[C@@H](Cc1ccc2ccccc2c1)NC(=O)C1CCCC1)C(=O)N[C@@H](CCCCNC(C)C)C(=O)N1CCC[C@H]1C(=O)N[C@H](C)C(N)=O [Example 2g, N-Cyclopentylcarbonyl-D2Nal-D4ClPhe-D3Pal-Ser-NMeTyr-DLys(N-epsilon-Nicotinyl)-Leu-Lys(N-epsilon-lsopropyl)-Pro-DAlaNH 2] (Cyclopentanecarbonyl-[d2Nal][dPhe(4-Cl)][d3Pal]S[NMeY][dK](Nicotinoyl)L[Lys(iPr)]P[dA]-NH2) | 70.8
CC(C)C[C@H](NC(=O)[C@@H](CCCNC(N)=O)NC(=O)[C@H](Cc1ccc(O)cc1)N(C)C(=O)[C@H](CO)NC(=O)[C@@H](Cc1cccnc1)NC(=O)[C@@H](Cc1ccc(Cl)cc1)NC(=O)[C@@H](Cc1ccc2ccccc2c1)NC(=O)CCC(=O)O)C(=O)N[C@@H](CCCNC(=N)N)C(=O)N1CCC[C@H]1C(=O)N[C@H](C)C(N)=O [Example 6, N-Succinyl-D2Nal-D4ClPhe-D3Pal-Ser-NMeTyr-DCit-Leu-Arg-Pro-DAlaNH2] (Suc-[d2Nal][dPhe(4-Cl)][d3Pal]S[NMeY][dCit]LRP[dA]-NH2) | 39.8
CCCC(=O)N[C@H](Cc1ccc2ccccc2c1)C(=O)N[C@H](Cc1ccc(Cl)cc1)C(=O)N[C@H](Cc1cccnc1)C(=O)N[C@@H](CO)C(=O)N(C)[C@@H](Cc1ccc(O)cc1)C(=O)N[C@H](CCCCNC(=O)c1cccnc1)C(=O)N[C@@H](CC(C)C)C(=O)N[C@@H](CCCCNC(C)C)C(=O)N1CCC[C@H]1C(=O)N[C@H](C)C(N)=O [Example 2b, N-Butyryl-D2Nal-D4ClPhe-D3Pal-Ser-NMeTyr-DLys(N-epsilon-Nicotinyl)-Leu-Lys(N-epsilon-Isopropyl)-Pro-DAlaNH 2] (Butyryl-[d2Nal][dPhe(4-Cl)][d3Pal]S[NMeY][dK](Nicotinoyl)L[Lys(iPr)]P[dA]-NH2) | 8.91
CCCC(=O)N[C@H](Cc1ccc2ccccc2c1)C(=O)N[C@H](Cc1ccc(Cl)cc1)C(=O)N[C@H](Cc1cccnc1)C(=O)N[C@@H](CO)C(=O)N(C)[C@@H](Cc1ccc(O)cc1)C(=O)N[C@H](CCCNC(N)=O)C(=O)N[C@@H](CC(C)C)C(=O)N[C@@H](CCCNC(=N)N)C(=O)N1CCC[C@H]1C(=O)N[C@H](C)C(N)=O [Example 5c, N-Butyryl-D2Nal-D4ClPhe-D3Pal-Ser-NMeTyr-DCit-Leu-Arg-Pro-DAlaNH2] (Butyryl-[d2Nal][dPhe(4-Cl)][d3Pal]S[NMeY][dCit]LRP[dA]-NH2) | 5.62
CC(C)C[C@H](NC(=O)[C@@H](CCCCNC(=O)c1cccnc1)NC(=O)[C@H](Cc1ccc(O)cc1)N(C)C(=O)[C@H](CO)NC(=O)[C@@H](Cc1cccnc1)NC(=O)[C@@H](Cc1ccc(Cl)cc1)NC(=O)[C@@H](Cc1ccc2ccccc2c1)NC(=O)CCC(=O)O)C(=O)N[C@@H](CCCCNC(C)C)C(=O)N1CCC[C@H]1C(=O)N[C@H](C)C(N)=O [Example 3, N-Succinyl-D2Nal-D4ClPhe-D3Pal-Ser-NMeTyr-DLys(Nicotinyl)-Leu-Lys(N-epsilon-lsopropyl.)-Pro-DAlaNH2] (Suc-[d2Nal][dPhe(4-Cl)][d3Pal]S[NMeY][dK](Nicotinoyl)L[Lys(iPr)]P[dA]-NH2) | 51.3
CC(C)C[C@H](NC(=O)[C@@H](CCCCNC(=O)c1cccnc1)NC(=O)[C@H](Cc1ccc(O)cc1)N(C)C(=O)[C@H](CO)NC(=O)[C@@H](Cc1cccnc1)NC(=O)[C@@H](Cc1ccc(Cl)cc1)NC(=O)[C@@H](Cc1ccc2ccccc2c1)NC(=O)C1CC1)C(=O)N[C@@H](CCCCNC(C)C)C(=O)N1CCC[C@H]1C(=O)N[C@H](C)C(N)=O [Example 2f, N-Cyclopropylcarbonyl-D2Nal-D4ClPhe- D3Pal-Ser-NMeTyr-DLys(N-epsilon-Nicotinyl)-Leu-Lys(N-epsilon-Isopropyl)-Pro-DAlaNH 2] (Cyclopropanecarbonyl-[d2Nal][dPhe(4-Cl)][d3Pal]S[NMeY][dK](Nicotinoyl)L[Lys(iPr)]P[dA]-NH2) | 3.55
CCC(=O)N[C@H](Cc1ccc2ccccc2c1)C(=O)N[C@H](Cc1ccc(Cl)cc1)C(=O)N[C@H](Cc1cccnc1)C(=O)N[C@@H](CO)C(=O)N(C)[C@@H](Cc1ccc(O)cc1)C(=O)N[C@H](CCCCNC(=O)c1cccnc1)C(=O)N[C@@H](CC(C)C)C(=O)N[C@@H](CCCCNC(C)C)C(=O)N1CCC[C@H]1C(=O)N[C@H](C)C(N)=O [Example 2a, N-Propionyl-D2Nal-D4ClPhe-D3Pal-Ser-NMeTyr-DLys(N-epsilon-Nicotinyl)-Leu-Lys(N-epsilon-Isopropyl)-Pro-DAlaNH 2] (Propionyl-[d2Nal][dPhe(4-Cl)][d3Pal]S[NMeY][dK](Nicotinoyl)L[Lys(iPr)]P[dA]-NH2) | 5.01
